In US8415158B2, “Compositions and methods useful for culturing differentiable cells” (ViaCyte, Inc., priority 2006, dated 2013):

Experiments:
BG02 hESCs = test: Proliferation of hESCs growing in conditioned medium with AG825; format: cell-based, human; conditions: 50 μM (FIG. 6A)
Excerpt: (§1) Colony and cell-counting assays confirmed that LongR3-IGF1 and HRG played the major roles in self-renewal and proliferation in the context of one of the embodiments of the present invention (FIGS. 6D, 6E). Phosphorylation of IGF1R, IR, FGF2a, ErbB2, and ErbB3 was also observed in both steady-state DC-HAIF cultures, and in starved cultures that were pulsed with DC-HAIF (FIG. 6F).

ErbB2 = target: T1, ErbB2 (Homo sapiens, UniProt P04626); test: Western blotting of ErbB2 autophosphorylation in starved/heregulin pulsed hESCs; format: cell-based; conditions: starved/heregulin pulsed hESCs growing in DC-HAIF
T1 construct: endogenous in cells; host or cells: human embryonic stem cells (hESCs) grown in DC-HAIF
Excerpt: as §1

BG01v cells = test: Proliferation of BG01v cells with ErbB tyrosine kinase inhibitors, alkaline phosphatase staining; format: cell-based; conditions: 5 days
Method: To examine the effect of known inhibitors of ErbB tyrosine kinases in hESCs, BG01 v cells were plated in 6 well trays on […]™ diluted at 1:1000, in defined culture medium (DC) containing 100 ng/ml LongR3-IGF1, 8 ng/ml FGF2 and 1 ng/ml Activin A. On the next day, DMSO (carrier control), 50 nM-20 μM AG1478 (an ErbB1 inhibitor), or 100 nM-20 μM AG879 (an ErbB2 inhibitor) was added with fresh medium. The cells were cultured for an additional 5 days, with daily media changes. The cultures were then fixed and stained for alkaline phosphatase activity.

R1 mouse ES cells = test: Proliferation of R1 mouse ES cells with ErbB tyrosine kinase inhibitors, alkaline phosphatase staining; format: cell-based
Method: AG1478 and AG879 were used to examine the role of HRG/ErbB signaling in mouse ES cells. R1 mouse ES cells were maintained in standard conditions in DMEM, 10% FBS, 10% KSR, 0.5 U/ml penicillin, 0.5 U/ml streptomycin, 1×NEAA, 1 mM sodium pyruvate, 1000 U/ml LIF (ESGRO), 0.1 mM 13-ME, and were passaged with 0.5% trypsin/EDTA. 2×10^5 cells/well were plated in 6 well trays on […]™ diluted at 1:1000. The day after plating, DMSO (carrier control), 1-50 μM AG1478, or 1-50 μM AG879 was added with fresh medium. The cells were cultured an additional 8 days, with daily media changes. The cultures were then fixed and stained for alkaline phosphatase activity.

BG02 cells = test: Suspension culture of BG02 cells with and without apoptosis inhibitor, cell counting; format: cell-based, human
Method: Starting cultures of BG02 cells were maintained in DC-HAIF medium on dishes coated with 1:200 matrigel, as described herein and were split by passaging with ACCUTASE™. To initiate suspension culture, BG02 cells were disaggregated with ACCUTASE™ and placed in low attachment 6-well trays at a density of 1.6, 3, or 6×10^5 cells/ml (0.5, 1, or 2×10^6 cells in 3 ml volumes) in DC-HAIF medium. The trays were placed on a rotating platform at 80-100 rpm in a humidified incubator with 5% CO2. Under these conditions hESCs coalesced into small spheres of morphologically viable cells within 24 hours.
To attenuate the loss of cells after initial passaging in suspension, an inhibitor of apoptosis was added to the medium. Cells were passaged as in Example 12, except that Y-27632, an inhibitor of p160-Rho-associated coiled-coil kinase (ROCK), was added to the medium.
Suspension aggregates of BG02 cells were formed by seeding 2×10^6 single cells in 6-well dishes in 3 ml DC-HAIF medium, at 100 rpm on a rotating platform in an incubator (Table 2, Experiment A). 10 μM Y27632 ROCK inhibitor was added to test wells for the course of the experiment and the cultures observed daily and counted after 24 hours (day 1) and after 4 or 5 days. […] Cell counting confirmed that more viable cells were present in the presence of inhibitor (Table 2, Experiment A). This difference in cell number persisted throughout the course of the culture period, with more cells also observed on day 4, compared to cultures without inhibitor. As with previous suspension culture experiments, cells exposed to Y27632 could also be serially passaged, and maintained in an undifferentiated state (not shown).
As previous experiments had shown that growth rates of cells in suspension and adherent culture were similar after the initial 24 hours, an experiment was performed where Y27632 was removed after this initial period (Table 2, Experiment B). […] 1.4×10^7 (+Y27632) and 1.8×10^7 (+/−Y27632) viable cells were generated when inhibitor was present compared to 3.9×10^6 cells in untreated cultures. This analysis confirmed that Y27632 had the largest impact during the first 24 hours of suspension hESC culture.
Because of the enhanced survival and aggregation observed in the presence of Y27632, an experiment was performed to examine if it was possible to reduce the number of cells used to seed suspension cultures (Table 2, Experiment C). […] To determine if addition of a ROCK inhibitor would allow cell seeding at lower densities, a range of cell concentrations (from about 2×10^6 total cells down to about 1×10^5 total cells was used to seed suspension cultures in 6-well trays cells in 3 ml DC-HAIF. 10 μM Y27632 was added to all conditions, and the cell number and viability assessed on day 5. Successful aggregation and expansion was observed even at low seeding densities. An approxiate 13 fold expansion of viable cells was observed even cultures that were only seeded with 1×10^5 cells. Inhibition of ROCK with Y27632 therefore facilitated initial survival of hESCs at much lower densities in this suspension system.

ES cells = test: Suspension cultures in various media, cell counting; format: cell-based; conditions: added to HAIF, HAI and HI conditions
Method: To determine if suspensions of ES cells could be cultured in the absence of FGF2 and/or Activin A, ES cells were cultured in a variety of media, with and without these factors. […] In addition, the cells in each media were successfully passaged with no morphological signs of differentiation.

hESCs = test: Titration of insulin and IGF1 at physiological levels, hESC proliferation; format: cell-based, human; conditions: titrated from about 0.2 to about 200 ng/ml, cells counted after 5 days
Method: Essentially all of the reported culture conditions for hESCs to date include supraphysiological levels of insulin, which can stimulate both IR and IGF1R. To distinguish the activities that insulin and insulin-substitutes exert, compared to IGF1, hESCs are cultured in defined media conditions in physiological levels of these growth factors. The concentrations of insulin and IGF1 are titrated from about 0.2 to about 200 ng/ml and cell proliferation is monitored by counting cells after 5 days. Cultures that expand successfully are serially passaged 5 times.

[1] = Expt. A, seeding 2 × 10^6, p0, day 1
[2] = Expt. A, seeding 2 × 10^6, p0, day 4
[3] = Expt. B, seeding 2 × 10^6, p0, day 1
[4] = Expt. B, seeding 2 × 10^6, p0, day 5
[5] = Expt. B, seeding 2 × 10^6, p0, day 5, Y27632 removed after 24 hours
[6] = Expt. C, seeding 1 × 10^6, p0, day 1
[7] = Expt. C, seeding 1 × 10^6, p0, day 5
[8] = Expt. C, seeding 2 × 10^6, p0, day 1
[9] = Expt. C, seeding 2 × 10^6, p0, day 5
[10] = Expt. C, seeding 2.5 × 10^5, p0, day 1
[11] = Expt. C, seeding 2.5 × 10^5, p0, day 5
[12] = Expt. C, seeding 5 × 10^5, p0, day 1
[13] = Expt. C, seeding 5 × 10^5, p0, day 5
[14] = Expt. C, seeding 10^5, p0, day 1
[15] = Expt. C, seeding 10^5, p0, day 5

T1 sequence (P04626 23-1255): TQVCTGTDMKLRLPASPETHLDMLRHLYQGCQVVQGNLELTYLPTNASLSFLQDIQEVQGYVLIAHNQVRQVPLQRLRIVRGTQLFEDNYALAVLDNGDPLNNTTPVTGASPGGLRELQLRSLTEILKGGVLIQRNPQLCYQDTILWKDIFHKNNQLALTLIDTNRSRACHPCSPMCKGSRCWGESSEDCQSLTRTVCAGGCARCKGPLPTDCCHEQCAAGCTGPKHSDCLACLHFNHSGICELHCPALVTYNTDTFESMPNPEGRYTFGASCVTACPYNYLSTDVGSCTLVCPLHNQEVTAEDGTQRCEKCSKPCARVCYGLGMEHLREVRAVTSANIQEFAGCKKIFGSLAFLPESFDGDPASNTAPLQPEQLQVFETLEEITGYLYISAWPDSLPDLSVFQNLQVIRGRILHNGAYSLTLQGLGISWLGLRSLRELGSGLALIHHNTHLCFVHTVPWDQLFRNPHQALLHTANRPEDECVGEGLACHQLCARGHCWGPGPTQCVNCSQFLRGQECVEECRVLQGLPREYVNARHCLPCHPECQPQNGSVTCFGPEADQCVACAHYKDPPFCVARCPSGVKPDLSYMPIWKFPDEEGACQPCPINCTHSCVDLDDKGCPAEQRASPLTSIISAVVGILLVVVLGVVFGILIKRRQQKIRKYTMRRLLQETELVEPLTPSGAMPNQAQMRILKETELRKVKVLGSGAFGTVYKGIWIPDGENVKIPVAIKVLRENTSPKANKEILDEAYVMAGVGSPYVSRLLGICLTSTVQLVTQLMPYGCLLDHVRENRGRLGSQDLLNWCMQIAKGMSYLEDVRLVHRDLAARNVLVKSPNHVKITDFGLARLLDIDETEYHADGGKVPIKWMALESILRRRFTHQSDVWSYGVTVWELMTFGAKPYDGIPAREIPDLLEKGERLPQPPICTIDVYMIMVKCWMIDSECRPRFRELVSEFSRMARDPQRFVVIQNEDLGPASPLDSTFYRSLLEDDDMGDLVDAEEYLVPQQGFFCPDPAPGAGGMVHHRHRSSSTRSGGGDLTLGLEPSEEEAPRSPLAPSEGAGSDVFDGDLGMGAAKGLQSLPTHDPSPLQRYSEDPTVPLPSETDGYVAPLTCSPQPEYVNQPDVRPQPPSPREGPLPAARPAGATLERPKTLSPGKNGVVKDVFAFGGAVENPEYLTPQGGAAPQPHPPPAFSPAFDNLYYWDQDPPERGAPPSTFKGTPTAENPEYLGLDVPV

Compound: COc1cc(/C=C(\C#N)C(N)=O)cc(CSc2nc3ccccc3s2)c1O [AG825]
- effect on proliferation of hESCs growing in conditioned medium (CM) (BG02 hESCs): significantly inhibited proliferation
- autophosphorylation of ErbB2 at tyrosine-1248 (ErbB2): inhibited autophosphorylation

Compound: CC(C)(C)c1cc(/C=C(\C#N)C(N)=S)cc(C(C)(C)C)c1O [AG879]
- effect on cell growth (BG01v cells; 5 μM): substantially inhibited cell growth
- cell death (BG01v cells; 20 μM): caused cell death
- effect on proliferation (R1 mouse ES cells; 20 μM, 8 days): may have slowed proliferation
- effect on cell growth (R1 mouse ES cells; 50 μM, 8 days): substantially inhibited cell growth
- concentration required to inhibit proliferation, mESCs relative to BG01v cells (R1 mouse ES cells; higher for mESCs than for BG01v cells in defined conditions): ~10 ×

Compound: COc1cc2ncnc(Nc3cccc(Cl)c3)c2cc1OC [AG1478]
- effect on cell proliferation (BG01v cells; 50 nM-20 μM, DC medium with LongR3-IGF1, FGF2, Activin A): neither DMSO nor AG1478 (50 nM-20 μM) had an apparent affect on cell proliferation
- effect on cell proliferation (R1 mouse ES cells; 1-50 μM, 8 days, 10% FBS, 10% KSR, LIF): no apparent affect on cell proliferation

Compound: C[C@@H](N)[C@H]1CC[C@H](C(=O)Nc2ccncc2)CC1 [Y27632]
- size of aggregates in initial aggregation phase of suspension culture (BG02 cells; 10 μM, compared to medium without inhibitor): much larger aggregates were formed
- initial survival and aggregation of hESCs after initial passage (BG02 cells; 10 μM, first 24 hours): enhanced initial survival and aggregation of hESCs
- cells observed when the aggregates were split again (BG02 cells; Expt. A, 10 μM, versus without inhibitor): almost twice as many cells
- Cell counts: total (BG02 cells; Expt. A, p1, day 4): 4.6 × 10^6 cells
- Cell counts: viable (BG02 cells; Expt. A, p1, day 4): 4.2 × 10^6 cells
- viable cells, % (BG02 cells; Expt. A, p1, day 4): 91%
- Cell counts: total (BG02 cells; [1]): 1.6 × 10^6 cells
- Cell counts: viable (BG02 cells; [1]): 1.2 × 10^6 cells
- viable cells, % (BG02 cells; [1]): 74%
- Cell counts: total (BG02 cells; [2]): 7.8 × 10^6 cells
- Cell counts: viable (BG02 cells; [2]): 7.1 × 10^6 cells
- viable cells, % (BG02 cells; [2]): 91%
- Cell counts: total (BG02 cells; [3]): 1.9 × 10^6 cells
- Cell counts: viable (BG02 cells; [3]): 1.4 × 10^6 cells
- viable cells, % (BG02 cells; [3]): 73%
- Cell counts: total (BG02 cells; [4]): 1.5 × 10^7 cells
- Cell counts: viable (BG02 cells; [4]): 1.4×10^7 cells
- viable cells, % (BG02 cells; [4]): 92%
- Cell counts: total (BG02 cells; [5]): 1.9 × 10^7 cells
- Cell counts: viable (BG02 cells; [5]): 1.8×10^7 cells
- viable cells, % (BG02 cells; [5]): 96%
- Cell counts: total (BG02 cells; [6]): 8.7 × 10^5 cells
- Cell counts: viable (BG02 cells; [6]): 6.6 × 10^5 cells
- viable cells, % (BG02 cells; [6]): 76%
- Cell counts: total (BG02 cells; [7]): 8.6 × 10^6 cells
- Cell counts: viable (BG02 cells; [7]): 7.8 × 10^6 cells
- viable cells, % (BG02 cells; [7]): 91%
- Cell counts: total (BG02 cells; [8]): 1.9 × 10^6 cells
- Cell counts: viable (BG02 cells; [8]): 1.6 × 10^6 cells
- viable cells, % (BG02 cells; [8]): 84%
- Cell counts: total (BG02 cells; [9]): 1.4 × 10^7 cells
- Cell counts: viable (BG02 cells; [9]): 1.2 × 10^7 cells
- viable cells, % (BG02 cells; [9]): 90%
- Cell counts: total (BG02 cells; [10]): 2.6 × 10^5 cells
- Cell counts: viable (BG02 cells; [10]): 2.3 × 10^5 cells
- viable cells, % (BG02 cells; [10]): 91%
- Cell counts: total (BG02 cells; [11]): 2.7 × 10^6 cells
- Cell counts: viable (BG02 cells; [11]): 2.5 × 10^6 cells
- viable cells, % (BG02 cells; [11]): 91%
- Cell counts: total (BG02 cells; [12]): 4.6 × 10^5 cells
- Cell counts: viable (BG02 cells; [12]): 3.5 × 10^5 cells
- viable cells, % (BG02 cells; [12]): 75%
- Cell counts: total (BG02 cells; [13]): 5.7 × 10^6 cells
- Cell counts: viable (BG02 cells; [13]): 5.3 × 10^6 cells
- viable cells, % (BG02 cells; [13]): 93%
- Cell counts: total (BG02 cells; [14]): 6.8 × 10^4 cells
- Cell counts: viable (BG02 cells; [14]): 5.4 × 10^4 cells
- viable cells, % (BG02 cells; [14]): 79%
- Cell counts: total (BG02 cells; [15]): 1.4 × 10^6 cells
- Cell counts: viable (BG02 cells; [15]): 1.3 × 10^6 cells
- viable cells, % (BG02 cells; [15]): 92%
- expansion of viable cells (BG02 cells; seeded with 1×10^5 cells, 10 μM Y27632, day 5): ~13 fold
- yield of cells generated by day 5 (ES cells): increased the yield of cells

Compound: IGF1: insulin-like growth factor
- expansion of hESC cultures at physiological levels (hESCs): support the expansion of hESC cultures

Compound: insulin: protein that binds to the insulin receptor
- expansion of hESC cultures at physiological levels (hESCs): do not
